Where two headings read alike, the source gives them in different places.
What was measured:
Type in all cases: cell-based
human 5-HT2C receptor = target: T1, human 5-HT2C receptor (Homo sapiens, UniProt P28335); assay: Functional activity by Ca++-flux (intracellular calcium mobilization), 5-HT2C; conditions: for 2A/2C ratio: ratio of EC50 5-HT2A / 5-HT2C; for 2B/2C ratio: ratio of EC50 5-HT2B / 5-HT2C; for Emax at the 5-HT2C receptor: partial agonist activity; for selectivity over the 5-HT2A receptor: 5-HT2C versus 5-HT2A
T1 construct: expressed in transfected cells; host or cells: HEK-293
T1 sequence (P28335 33-458): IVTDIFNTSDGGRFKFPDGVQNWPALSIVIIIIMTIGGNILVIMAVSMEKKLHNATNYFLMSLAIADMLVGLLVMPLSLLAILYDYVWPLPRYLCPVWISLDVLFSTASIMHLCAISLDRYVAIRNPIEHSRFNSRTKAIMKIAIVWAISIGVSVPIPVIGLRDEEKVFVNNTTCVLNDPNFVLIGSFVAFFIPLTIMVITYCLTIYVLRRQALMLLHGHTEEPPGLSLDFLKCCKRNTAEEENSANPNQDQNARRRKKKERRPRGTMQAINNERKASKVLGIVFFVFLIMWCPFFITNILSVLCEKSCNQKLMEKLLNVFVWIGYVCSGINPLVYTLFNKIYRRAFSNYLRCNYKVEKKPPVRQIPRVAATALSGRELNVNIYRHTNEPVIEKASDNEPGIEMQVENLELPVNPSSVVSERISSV
Method: The functional activity of compounds for the human 5-HT2A, human 5-HT2B, and human 5-HT2C receptors as agonists, partial agonists and antagonists is determined by measurement of Ca++-flux. […] As noted above, other methods for assessing agonist/antagonist function of compounds for 5-HT2 family receptors are known in the art.
(§1) For these studies stably expressing lines of h5-HT2A, h5-HT2B, and h5-HT2C receptors are prepared in HEK-293 cells. For the h5-HT2A and h5-HT2C-INI receptors, stably expressing HEK-293 cell lines were constructed as previously described using a pIRES-NEO vector system (See: Rauser et al, J Pharmacol Exp Ther 299: 83-89, 2001).
(§2) Stable cell lines were plated with ˜40,000 cells/well into uncoated (3T3 cells) or poly-L-lysine coated (HEK293 cells) 96-well plates in DMEM supplemented with 5% dialyzed FBS. 16-24 hrs post-plating, the medium was aspirated and replaced with 30 μl/well of Calcium Assay Kit Component A Dye (Molecular Devices; Sunnyvale, Calif.) dissolved in 30 ml/bottle of assay buffer (2.5 mM probenecid, 20 mM Hepes, and 1× Hanks' Balanced Salt Solution (Invitrogen; Carlsbad, Calif.) (138 mM NaCl, 5.3 mM KCl, 1.3 mM CaCl2, 0.49 mM MgCl2, 0.41 mM MgSO4, 0.44 mM KH2PO4, 0.34 mM Na2HPO4) pH 7.4. Plates were incubated in the dye for 1 hr at 37° C. Dilutions were made in assay buffer as 2× stocks and added to 96-well drug plates. Fluorometric imaging was performed using a FlexStation II plate reader (Molecular Devices) reading the plate at 1.5 second intervals for 1 min. After establishing a fluorescent baseline (excitation at 485 nm and emission at 525 nm, using a […] cutoff), the FlexStation II automatically transferred 30 μl of 2× drug stocks from the drug plate to the cell plate at the 20 second time point with reading for another 40 seconds. Peak relative fluorescence units (RFU) were subtracted from baseline RFUs using SoftMax Pro (Molecular Devices) and values were imported into GraphPad Prism version 4.03 (GraphPad Software; San Diego, Calif.) for analysis. Ca++-flux studies are very convenient for initial screening of large numbers of compounds for agonist activity.
(§3) Compounds are resuspended in DMSO at a stock concentration of 2-15 mM and, for a typical agonist screen, are diluted in assay buffer to a final 2× concentration of 20 μM into drugs plates. Compounds are added in duplicate to cell plates using the FlexStation II as described to identify agonists, defined as having >10% of maximal 5-HT response. […] Generally, screens are performed twice with each determination being made in duplicate.
(§4) Compounds identified by primary screens to be agonists are subsequently used in concentration-response experiments to verify the initial observations and obtain agonist potencies. Concentration-response studies are performed in triplicate or quadruplicate at each concentration and repeated three times. Baseline-subtracted RFU values imported into GraphPad Prism are analyzed by non-linear regression to obtain pEC50 values, and normalized to maximal 5-HT response to obtain relative efficacies.

human 5-HT2A receptor = target: T2, human 5-HT2A receptor (Homo sapiens, UniProt P28223); assay: Functional activity by Ca++-flux (intracellular calcium mobilization), 5-HT2A; conditions: for EC50: Ca++-flux, HEK-293 cells, NA = not active
T2 construct: expressed in transfected cells; host or cells: HEK-293
T2 sequence (P28223 whole entry): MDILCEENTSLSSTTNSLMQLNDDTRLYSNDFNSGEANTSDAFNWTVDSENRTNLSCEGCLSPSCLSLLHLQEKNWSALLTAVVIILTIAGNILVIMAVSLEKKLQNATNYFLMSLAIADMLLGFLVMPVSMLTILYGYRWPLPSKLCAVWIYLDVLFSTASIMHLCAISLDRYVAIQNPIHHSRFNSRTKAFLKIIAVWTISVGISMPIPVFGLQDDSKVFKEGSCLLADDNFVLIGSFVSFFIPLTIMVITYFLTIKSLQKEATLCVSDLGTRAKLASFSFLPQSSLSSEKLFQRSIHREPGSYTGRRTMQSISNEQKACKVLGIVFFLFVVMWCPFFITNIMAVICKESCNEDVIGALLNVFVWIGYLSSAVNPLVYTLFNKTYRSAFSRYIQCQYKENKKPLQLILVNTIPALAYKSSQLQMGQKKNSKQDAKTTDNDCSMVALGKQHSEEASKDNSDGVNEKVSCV
Method: The functional activity of the compounds for the human 5-HT2A, human 5-HT2B, and human 5-HT2C receptors is determined by measurement of Ca++-flux as detailed in the Examples, in transiently transfected HEK-293 cells and the results are summarized in Table I. Structures of compounds listed in Table I are given in Scheme 15.
The functional activity of compounds for the human 5-HT2A, human 5-HT2B, and human 5-HT2C receptors as agonists, partial agonists and antagonists is determined by measurement of Ca++-flux. The results are summarized in Table 1 where EC50 for different receptors are given (nM) and the ratio of activities 2A/2C and 2B/2C are also given. As noted above, other methods for assessing agonist/antagonist function of compounds for 5-HT2 family receptors are known in the art.
as §1, §2
as §3, with “duplicate. Typical Z′-factor (Zhang et al., 1999) values for agonist screens ranged from 0.61-0.79 (5-HT2AR), 0.42-0.81 (5-HT2BR) and 0.38-0.72 (5-HT2CR); these Z′-factor values are adequate for screening studies in which N=2 determinations are made and the screens replicated for a total of N=4 determinations.” for “duplicate.”
as §4

human 5-HT2B receptor = target: T3, human 5-HT2B receptor (Homo sapiens, UniProt P41595); assay: Functional activity by Ca++-flux (intracellular calcium mobilization), 5-HT2B
T3 construct: expressed in transfected cells; host or cells: HEK293 (ATCC CRL-1573), retroviral infection with pBabepuro-FLAG-h5-HT2BR, polyclonal line
T3 sequence (P41595 whole entry): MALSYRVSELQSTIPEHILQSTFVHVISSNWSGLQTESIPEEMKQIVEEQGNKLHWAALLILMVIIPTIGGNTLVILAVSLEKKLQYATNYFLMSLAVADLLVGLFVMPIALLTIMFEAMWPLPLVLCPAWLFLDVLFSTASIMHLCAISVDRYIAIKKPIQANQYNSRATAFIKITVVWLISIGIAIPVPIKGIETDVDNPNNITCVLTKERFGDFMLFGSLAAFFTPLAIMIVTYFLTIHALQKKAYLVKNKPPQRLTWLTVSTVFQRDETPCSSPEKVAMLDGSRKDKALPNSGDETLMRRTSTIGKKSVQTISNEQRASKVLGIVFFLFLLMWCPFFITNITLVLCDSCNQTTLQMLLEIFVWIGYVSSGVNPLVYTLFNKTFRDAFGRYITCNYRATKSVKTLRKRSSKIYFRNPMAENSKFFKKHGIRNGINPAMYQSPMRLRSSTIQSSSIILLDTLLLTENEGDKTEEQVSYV

[1] = Ca++-flux, HEK-293 cells, NA = not active, read-out: 5-HT2C human EC50
[2] = Ca++-flux, HEK-293 cells, NA = not active, read-out: 5-HT2B human EC50

Row | Compound | EC50 (human 5-HT2C receptor; [1]) [µM] | 2A/2C ratio (human 5-HT2C receptor) | 2B/2C ratio (human 5-HT2C receptor) | EC50 (human 5-HT2A receptor) [µM] | EC50 (human 5-HT2B receptor; [2]) [µM] | also measured
1 | c1ccc(CN[C@@H]2C[C@H]2c2ccccc2)cc1 (racemic) [TKU-II-30, trans-(±)-Benzyl-(2-phenyl-cyclopropyl)-amine] | 10.5 | 929.5 | 1020 | 9790 | – | EC50 (human 5-HT2B receptor): 10700 µM
2 | CC(C)N[C@@H]1C[C@H]1c1ccccc1 (racemic) [TKU-II-33, trans-(±)-Isopropyl-(2-phenyl-cyclopropyl)-amine] | 8.84 | 166 | – | 1470 | – | –
3 | c1ccc(CNC[C@@H]2C[C@H]2c2ccccc2)cc1 (racemic) [TKU-II-36, trans-(±)-N-Benzyl-(2-phenyl-cyclopropylmethyl)-amine] | 7.46 | 16.5 | 137 | 123 | 1020 | –
4 | CN[C@@H]1C[C@H]1c1ccccc1 (racemic) [TKU-II-38, trans-(±)-Methyl-(2-phenyl-cyclopropyl)-amine] | 2.5 | 65.8 | – | 165 | – | –
5 | CNC[C@@H]1C[C@H]1c1ccccc1 (racemic) [TKU-II-39, trans-(±)-Methyl-(2-phenyl-cyclopropylmethyl)-amine] | 0.718 | 5.18 | 1.36 | 3.71 | 0.98 | –
6 | N[C@@H]1C[C@H]1c1ccccc1 (relative stereo) [Tranylcypromine, trans-2-phenylcyclopropylamine, reference compound] | – | – | – | – | – | EC50 (human 5-HT2C receptor): 0.271 µM
7 | cis-(±)-(2-Phenyl-cyclopropyl)-methylamine Hydrochloride [TKU-II-19] | 0.152 | 4.64 | 2.03 | 0.705 | 0.308 | activity at 5-HT2C receptor (human 5-HT2C receptor): poorly active; activity at 5-HT2A receptor (human 5-HT2A receptor): poorly active; activity at 5-HT2B receptor (human 5-HT2B receptor): poorly active
8 | trans-(+)-[2-(3-Bromo-phenyl)-cyclopropyl]-methylamine Hydrochloride [TKU-II-153-1] | 0.0114 | 4.3 | 1.8 | 0.0487 | 0.0213 | –
9 | trans-(±)-(2-Naphthalen-2-yl-cyclopropyl)-methylamine hydrochloride [TKU-II-42] | 6.75 | 0.14 | 2.29 | 0.951 | 15.4 | –
10 | trans-(±)-(2-Phenyl-cyclopropyl)-methylamine Hydrochloride [TKU-II-113] | – | – | – | – | – | EC50 (human 5-HT2C receptor; Ca++-flux, HEK-293 cells, NA = not active, Hydrochloride, read-out: 5-HT2C human EC50): 0.0045 µM; 2A/2C ratio (human 5-HT2C receptor; Hydrochloride): 9.84; 2B/2C ratio (human 5-HT2C receptor; Hydrochloride): 7.84; EC50 (human 5-HT2A receptor; Hydrochloride): 0.0443 µM; EC50 (human 5-HT2B receptor; Ca++-flux, HEK-293 cells, NA = not active, Hydrochloride, read-out: 5-HT2B human EC50): 0.0353 µM
11 | trans-(±)-[2-(2-Bromo-phenyl)-cyclopropyl]-methylamine Hydrochloride [TKU-II-78] | 0.0018 | 16.4 | 52.2 | 0.0295 | 0.094 | activity at 5-HT2C receptor (human 5-HT2C receptor): partial agonist activity; Emax at the 5-HT2C receptor (human 5-HT2C receptor): 58%
12 | trans-(±)-[2-(2-Fluoro-phenyl)-cyclopropyl]-methylamine Hydrochloride [TKU-II-100] | 0.00066 | 0.94 | 0.3 | 0.00062 | 0.0002 | activity at 5-HT2C receptor (human 5-HT2C receptor): good potency
13 | trans-(±)-[2-(3-Bromo-phenyl)-cyclopropyl]-methylamine Hydrochloride [TKU-II-71] | 0.0065 | 9.8 | 2.9 | 0.0635 | 0.0192 | activity at 5-HT2C receptor (human 5-HT2C receptor): partial agonist activity; Emax at the 5-HT2C receptor (human 5-HT2C receptor): 75%
14 | trans-(±)-[2-(3-Fluoro-phenyl)-cyclopropyl]-methylamine Hydrochloride [TKU-II-99] | 0.0632 | 1.0 | 74 | 0.0634 | 4.68 | –
15 | trans-(±)-[2-(4-Bromo-phenyl)-cyclopropyl]-methylamine Hydrochloride [TKU-II-44] | 0.18 | 5.90 | 2.75 | 1.06 | 0.495 | –
16 | trans-(±)-[2-(4-Fluoro-phenyl)-cyclopropyl]-methylamine Hydrochloride [TKU-II-90] | – | – | – | 0.0071 | – | –
17 | trans-(±)-[2-(4-Furan-2-yl-phenyl)-cyclopropyl]-methylamine Hydrochloride [TKU-II-81] | 0.082 | 3431 | – | 281 | – | selectivity over the 5-HT2A receptor (human 5-HT2C receptor): good selectivity; activity at 5-HT2B receptor (human 5-HT2B receptor): no activity
18 | trans-(±)-[2-(4′-Chloro-biphenyl-2-yl)-cyclopropyl]-methylamine Hydrochloride [TKU-II-119] | 0.00254 | 85 | 25 | 0.215 | 0.0637 | –
19 | trans-(±)-[2-(4′-Chloro-biphenyl-3-yl)-cyclopropyl]-methylamine Hydrochloride [TKU-II-116] | 0.124 | 32.3 | – | 4 | – | –
20 | trans-(±)-[2-(4′-Chloro-biphenyl-4-yl)-cyclopropyl]-methylamine Hydrochloride [TKU-II-82] | 0.429 | 464 | 8.3 | 199 | 3.54 | selectivity over the 5-HT2A receptor (human 5-HT2C receptor): good selectivity
21 | trans-(±)-[2-(4′-Trifluoromethyl-biphenyl-3-yl)-cyclopropyl]-methylamine Hydrochloride [TKU-II-117] | 0.465 | 596 | – | 277 | – | –
